According to US10543227B2, “Hair growth composition” (RIKEN, priority 2015, dated 2020):
“And” between values parts separate entries of the source, which are not always exact repeats. Identical values can stand only once. Like-named read-outs stand apart in the source and are kept apart here.

Key:
[1] = test system: mouse skin tissue; assay: Histological examination of skin tissue, anagen phase model (Example 4); type: in vivo, C3H/HeN mice; conditions: Positive control 5% MXD; after 24 days application; n = 8
Protocol: Paraffin sections were prepared, stained with hematoxylin/eosin (HE), and microscopically observed. Hair root density and anagen phase/telogen phase ratio were evaluated.

[2] = test system: hair-shaved back sites of C3H/HeN mice; assay: Telogen phase model, Test 2: hair growth at hair-shaved back sites; type: in vivo
Protocol: (§1) C3H/HeN mice (Charles River Japan (Kanagawa, Japan)) of 6 weeks old, the hair cycle of which repeatedly proceeds anagen phase, catagen phase and telogen phase in this order, were raised for a week for acclimatization. At the age of 7 weeks (the telogen phase is started at the age), hairs on the back were shaved off by an electric clipper and a shaver. After the mice were raised overnight, application of a test solution (200 μL per site) to the hair-shaved site was initiated.
(§2) In both of Test 1 and Test 2, each test solution was applied to the hair-shaved back sites of 5-12 mice per group, daily at a frequency of once a day. […] Alternatively, where needed, the hair growth effects were evaluated by calculating % hair-growth areas.
(§3) The evaluation results of Test 1 and Test 2 are shown in Table 1 and Table 2, respectively. Evaluation results were shown by scores based on the following criteria: when the hair-growth area calculated was 0% or more and less than 10%, score 1 was given; when the hair-growth area calculated was 10% or more and less than 25%, score 2 was given, when the hair-growth area calculated was 25% or more and less than 50%, score 3 was given; when the hair-growth area calculated was 50% or more and less than 75%, score 4 was given; and when the hair-growth area calculated was 75% or more, score 5 was given.

[3] = test system: mouse skin tissue; conditions: positive control, 5% MXD
Protocol: Specifically, the skin tissue was taken and fixed in 10% neutral buffered formalin. Paraffin sections thereof were prepared, stained with HE, and microscopically observed.

[4] = Protocol: (§4) Each test drug was applied to hair-shaved back sites (in an amount of 200 μL per site) of 5-6 animals per group, daily at a frequency of once a day. At 10 minutes and 30 minutes after the application on Day 20, average body surface temperature (° C.) was measured. […] Body surface temperature (° C.) was measured by photographing a hair-shaved site and its periphery using an infrared thermography camera (Thermoshot F30S (NEC/Avio, Tokyo, Japan)). The average body surface temperature per area was calculated using InfRec Analyzer NS9500 Standard (NEC/Avio, Tokyo, Japan).
These animals were subjected to drawing blood from the hearts on the final week for biochemical examination. Each blood was allowed to stand still on ice for 30 minutes and centrifuged twice at 10,000 rpm for 15 minutes (at 4° C.). The supernatants (i.e., sera) were transferred to new containers and stored in a freezer (at −80° C.). The sera were analyzed using a clinical chemistry analyzer for animal (FUJI DRI-CHEM 3500V) and special slides to obtain the values of [GPT (glutamate-pyruvate transaminase), GOT (glutamate oxaloacetate transaminase), GGT (γ-glutamyl transferase), LDH (lactate dehydrogenase), CHE (cholinesterase), CPK (creatine phosphokinase), ALB (albumin), TP (total protein), TCHO (total cholesterol), and TG (triglyceride)].

[5] = test system: hair-shaved back sites of C3H/HeN mice; assay: Telogen phase model, Test 1: hair growth at hair-shaved back sites; type: in vivo
Protocol: as §1, §2, §3

[6] = Average body surface temperature by infrared thermography (Example 2); conditions: Sodium thiosulfate 10% (w/v)
Protocol: as §4

[7] = Minoxidil 1% (w/v), Day 54 after initiation of application
[8] = Minoxidil 1%, serum, final week, N=5
[9] = Sodium thiosulfate 10% (w/v), Day 69 after initiation of application
[10] = Sodium thiosulfate 10%, serum, final week, N=5

Nc1cc(N2CCCCC2)nc(N)[n+]1[O-] [Minoxidil, minoxidil, reference compound]
Anagen phase/telogen phase [1]: 0.11 ± 0.05 | Hair root density [1]: 2.04 ± 0.32 /mm | Subcutaneous tissue [1]: 38.4 ± 9 µm | hair growth score ([2]; Minoxidil 1% (w/v), Day 27 after initiation of application): 0 | hair growth score ([2]; Minoxidil 1% (w/v), Day 34 after initiation of application): 0 | hair growth score ([2]; Minoxidil 1% (w/v), Day 41 after initiation of application): 0 | hair growth score ([2]; Minoxidil 1% (w/v), Day 48 after initiation of application): 0 | hair growth score [2, 7]: 0 | hair growth score ([2]; Minoxidil 1% (w/v), Day 61 after initiation of application): 0 | tissue abnormality (HE-stained skin sections) [3]: no individuals having tissue abnormality were found | CHE [4, 8]: 16.6 ± 1.5 U/l | TG [4, 8]: 294.0 ± 44.1 mg/dL | TP [4, 8]: 4.7 ± 0.5 g/dL | ALB ([4]; mouse, in vivo): 2.2 ± 0.1 g/dL | CPK ([4]; mouse, in vivo): 321.6 ± 231.5 U/l | GGT ([4]; mouse, in vivo): 1.0 ± 0.0 U/l | GOT (AST) ([4]; mouse, in vivo): 66.8 ± 40.2 U/l | LDH ([4]; mouse, in vivo): 237.8 ± 101.6 U/l | TCHO ([4]; mouse, in vivo): 167.2 ± 19.3 mg/dL | hair growth score ([5]; Minoxidil 1% (w/v), Day 26 after initiation of application): 0 | hair growth score ([5]; Minoxidil 1% (w/v), Day 32 after initiation of application): 0 | hair growth score ([5]; Minoxidil 1% (w/v), Day 40 after initiation of application): 0 | hair growth score ([5]; Minoxidil 1% (w/v), Day 47 after initiation of application): 0 | hair growth score [5, 7]: 0 | hair growth score ([5]; Minoxidil 1% (w/v), Day 62 after initiation of application): 0 | hair growth score ([5]; Minoxidil 1% (w/v), Day 69 after initiation of application): 0 | hair growth score ([5]; Minoxidil 1% (w/v), Day 76 after initiation of application): 0 | hair growth score ([5]; Minoxidil 1% (w/v), Day 83 after initiation of application): 0 | hair growth score ([5]; Minoxidil 1% (w/v), Day 90 after initiation of application): 0

O=S([O-])([O-])=S.[Na+].[Na+] [Sodium thiosulfate, sodium thiosulfate]
hair growth score ([2]; Sodium thiosulfate 10% (w/v), Day 27 after initiation of application): 0 | hair growth score ([2]; Sodium thiosulfate 10% (w/v), Day 34 after initiation of application): 0 | hair growth score [2, 9]: 2 (when the hair-growth area calculated was 10% or more and less than 25%, score 2 was given) and 4 (when the hair-growth area calculated was 50% or more and less than 75%, score 4 was given) and 3 (when the hair-growth area calculated was 25% or more and less than 50%, score 3 was given) | hair growth score ([2]; Sodium thiosulfate 10% (w/v), Day 90 after initiation of application): 3 (when the hair-growth area calculated was 25% or more and less than 50%, score 3 was given) and 5 (when the hair-growth area calculated was 75% or more, score 5 was given) and 4 (when the hair-growth area calculated was 50% or more and less than 75%, score 4 was given) | ALB [4, 10]: 2.2 ± 0.1 g/dL | CHE [4, 10]: 19.8 ± 3.1 U/l | CPK [4, 10]: 608.4 ± 642.5 U/l | GGT [4, 10]: 1.0 ± 0.0 U/l | GOT (AST) [4, 10]: 83.2 ± 46.3 U/l | GPT (ALT) [4, 10]: 20.8 ± 2.3 U/l | LDH [4, 10]: 277.4 ± 142.6 U/l | TCHO [4, 10]: 155.0 ± 10.1 mg/dL | TG [4, 10]: 296.8 ± 95.5 mg/dL | TP [4, 10]: 4.8 ± 0.3 g/dL | hair growth score ([5]; Sodium thiosulfate 1% (w/v), Day 26 after initiation of application): 0 | hair growth score ([5]; Sodium thiosulfate 1% (w/v), Day 32 after initiation of application): 0 | hair growth score ([5]; Sodium thiosulfate 1% (w/v), Day 40 after initiation of application): 0 | hair growth score ([5]; Sodium thiosulfate 1% (w/v), Day 47 after initiation of application): 0 | hair growth score ([5]; Sodium thiosulfate 1% (w/v), Day 54 after initiation of application): 0 | hair growth score ([5]; Sodium thiosulfate 1% (w/v), Day 62 after initiation of application): 0 | hair growth score ([5]; Sodium thiosulfate 1% (w/v), Day 69 after initiation of application): 0 | hair growth score ([5]; Sodium thiosulfate 1% (w/v), Day 76 after initiation of application): 0 | hair growth score ([5]; Sodium thiosulfate 1% (w/v), Day 83 after initiation of application): 0 | hair growth score ([5]; Sodium thiosulfate 1% (w/v), Day 90 after initiation of application): 0 | hair growth score ([5]; Sodium thiosulfate 2% (w/v), Day 26 after initiation of application): 0 | hair growth score ([5]; Sodium thiosulfate 2% (w/v), Day 32 after initiation of application): 0 | hair growth score ([5]; Sodium thiosulfate 2% (w/v), Day 40 after initiation of application): 0 | hair growth score ([5]; Sodium thiosulfate 2% (w/v), Day 47 after initiation of application): 0 | hair growth score ([5]; Sodium thiosulfate 2% (w/v), Day 54 after initiation of application): 0 | hair growth score ([5]; Sodium thiosulfate 2% (w/v), Day 62 after initiation of application): 0 | hair growth score ([5]; Sodium thiosulfate 2% (w/v), Day 69 after initiation of application): 0 | hair growth score ([5]; Sodium thiosulfate 2% (w/v), Day 76 after initiation of application): 0 | hair growth score ([5]; Sodium thiosulfate 2% (w/v), Day 83 after initiation of application): 0 | hair growth score ([5]; Sodium thiosulfate 2% (w/v), Day 90 after initiation of application): 0 | hair growth score ([5]; Sodium thiosulfate 2% (w/v), Day 97 after initiation of application): 0 | hair growth score ([5]; Sodium thiosulfate 4% (w/v), Day 26 after initiation of application): 0 | hair growth score ([5]; Sodium thiosulfate 4% (w/v), Day 32 after initiation of application): 0 | hair growth score ([5]; Sodium thiosulfate 4% (w/v), Day 40 after initiation of application): 0 | hair growth score ([5]; Sodium thiosulfate 4% (w/v), Day 47 after initiation of application): 0 | hair growth score ([5]; Sodium thiosulfate 4% (w/v), Day 54 after initiation of application): 0 | hair growth score ([5]; Sodium thiosulfate 10% (w/v), Day 26 after initiation of application): 0 | hair growth score ([5]; Sodium thiosulfate 10% (w/v), Day 32 after initiation of application): 0 | hair growth score ([5]; Sodium thiosulfate 10% (w/v), Day 40 after initiation of application): 0 | hair growth score [5, 9]: 2 (when the hair-growth area calculated was 10% or more and less than 25%, score 2 was given) and 3 (when the hair-growth area calculated was 25% or more and less than 50%, score 3 was given) | time point when hairs start growing (Kaplan-Meier curves) ([5]; as the concentration of sodium thiosulfate increases, Tests 1 and 2, FIGS. 2 and 3): new hairs tend to start growing from the earlier stage | start of new hair growth and hair-growth area compared to the negative control ([5]; sodium thiosulfate alone, 4% (w/v) or more): started growing at early stage after the application | average body surface temperature ([6]; 10 minutes after the application on Day 20): 36.6 °C and 36.3 °C and 35.8 °C and 35.5 °C and 36.7 °C | average body surface temperature ([6]; 30 minutes after the application on Day 20): 37.1 °C and 36.6 °C and 37 °C and 37.2 °C
